Like-named read-outs stand apart in the source and are kept apart here.
Molecular target: T1, F508delCFTR (Homo sapiens, UniProt P13569, DEL508-508)
T1 construct: expressed in transfected cells; host or cells: CFBE41o- human lung-derived epithelial cells (CFBE4lo-F508delCFTR-HRP), doxycycline-inducible
Experiment: Cell Surface Expression-Horse Radish Peroxidase (CSE-HRP) Assay;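 on Maximum % activity (with co-corrector): co-corrector and positive control are both the same reference corrector at 2 µM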;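 on Maximum % activity (without co-corrector): percent of the 2 µM on-plate positive control corrector response above DMSO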
Format: cell-based
Details: for Emax: read-out: Maximum % activity (without co-corrector)

[1] = test compound without co-corrector, read-out: EC50 (without co-corrector)
[2] = with co-corrector (2 μM of 3-[(2R,4R)-4-({[1-(2,2-difluoro-1,3-benzodioxol-5-yl)cyclopropyl]carbonyl}amino)-7-methoxy-3,4-dihydro-2H-chromen-2-yl]benzoic acid), read-out: EC50 (with co-corrector)
[3] = with co-corrector (2 μM), maximum at any tested concentration, normalized to on-plate positive control
[4] = without co-corrector, maximum at any tested concentration, normalized to on-plate positive control
[5] = CSE-HRP, test compound without co-corrector, read-out: EC50 (without co-corrector)
[6] = CSE-HRP, with co-corrector (2 μM of 3-[(2R,4R)-4-({[1-(2,2-difluoro-1,3-benzodioxol-5-yl)cyclopropyl]carbonyl}amino)-7-methoxy-3,4-dihydro-2H-chromen-2-yl]benzoic acid), read-out: EC50 (with co-corrector)
[7] = CSE-HRP, with co-corrector (2 μM), maximum at any tested concentration, normalized to on-plate positive control
[8] = CSE-HRP, without co-corrector, maximum at any tested concentration, normalized to on-plate positive control
[9] = test compound without co-corrector, maximum at any tested concentration, normalized to on-plate positive control
[10] = with co-corrector (2 μM of 3-[(2R,4R)-4-({[1-(2,2-difluoro-1,3-benzodioxol-5-yl)cyclopropyl]carbonyl}amino)-7-methoxy-3,4-dihydro-2H-chromen-2-yl]benzoic acid), maximum at any tested concentration, normalized to on-plate positive control

T1 sequence (P13569 with tags, fused parts or gaps DEL508-508): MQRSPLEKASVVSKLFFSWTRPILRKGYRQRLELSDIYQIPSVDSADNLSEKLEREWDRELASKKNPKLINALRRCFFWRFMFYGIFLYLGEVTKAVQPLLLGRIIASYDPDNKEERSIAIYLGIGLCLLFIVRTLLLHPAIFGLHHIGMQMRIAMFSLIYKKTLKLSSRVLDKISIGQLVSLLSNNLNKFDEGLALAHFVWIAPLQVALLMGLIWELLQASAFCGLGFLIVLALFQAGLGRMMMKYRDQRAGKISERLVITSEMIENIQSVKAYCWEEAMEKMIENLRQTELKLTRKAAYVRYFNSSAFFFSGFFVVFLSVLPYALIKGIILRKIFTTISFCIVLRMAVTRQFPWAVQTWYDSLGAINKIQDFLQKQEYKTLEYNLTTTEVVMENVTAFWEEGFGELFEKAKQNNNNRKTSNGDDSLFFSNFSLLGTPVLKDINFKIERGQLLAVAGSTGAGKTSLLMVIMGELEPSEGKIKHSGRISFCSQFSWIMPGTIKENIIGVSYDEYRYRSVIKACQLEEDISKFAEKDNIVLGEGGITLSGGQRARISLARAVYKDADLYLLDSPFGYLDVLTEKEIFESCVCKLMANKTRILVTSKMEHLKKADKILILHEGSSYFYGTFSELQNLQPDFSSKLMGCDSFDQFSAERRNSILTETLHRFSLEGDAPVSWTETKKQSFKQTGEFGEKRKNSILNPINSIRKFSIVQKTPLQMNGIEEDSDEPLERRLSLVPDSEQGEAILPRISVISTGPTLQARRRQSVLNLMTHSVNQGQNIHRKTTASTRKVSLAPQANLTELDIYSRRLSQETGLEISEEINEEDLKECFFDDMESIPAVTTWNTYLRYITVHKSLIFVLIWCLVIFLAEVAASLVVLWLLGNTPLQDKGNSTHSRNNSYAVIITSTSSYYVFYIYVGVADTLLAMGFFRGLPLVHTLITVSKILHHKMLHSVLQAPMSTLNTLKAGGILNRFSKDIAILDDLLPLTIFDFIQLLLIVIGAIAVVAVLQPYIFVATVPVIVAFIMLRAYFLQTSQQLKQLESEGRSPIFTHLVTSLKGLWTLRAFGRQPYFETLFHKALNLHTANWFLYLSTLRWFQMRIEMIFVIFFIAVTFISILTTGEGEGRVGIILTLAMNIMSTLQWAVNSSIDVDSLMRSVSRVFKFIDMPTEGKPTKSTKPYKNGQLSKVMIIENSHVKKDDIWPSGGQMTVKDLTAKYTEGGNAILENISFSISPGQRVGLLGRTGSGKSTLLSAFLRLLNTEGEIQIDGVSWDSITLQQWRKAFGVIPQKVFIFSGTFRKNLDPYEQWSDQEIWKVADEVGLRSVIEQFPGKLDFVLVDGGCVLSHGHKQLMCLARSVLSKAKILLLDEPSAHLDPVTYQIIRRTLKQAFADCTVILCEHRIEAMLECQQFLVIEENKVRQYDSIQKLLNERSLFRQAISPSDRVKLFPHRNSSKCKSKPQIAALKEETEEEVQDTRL

SMILES	EC50 [1] [nM]	EC50 [2] [nM]	EC50 [5] [nM]	EC50 [6] [nM]	Maximum % activity (with co-corrector) [7]	Emax [8] [%]	Emax [9] [%]	Maximum % activity (with co-corrector) [10]	further results
COc1ccc(C(C)(C)C)cc1CN[C@H]1[C@H](C(C)(C)C)[C@@H](C(=O)O)N(C(=O)[C@@H]2CCCCO2)[C@H]1c1ccccc1Br [Example 113, (2S,3S,4S,5S)-5-(2-bromophenyl)-3-tert-butyl-4-{[(5-tert-butyl-2-methoxyphenyl)methyl]amino}-1-[(2S)-oxane-2-carbonyl]pyrrolidine-2-carboxylic acid]	1000 to 10000	< 1000							Maximum % activity (with co-corrector) [3]: +++ (≥350); Emax [4]: > 200%
COc1ncc(C(C)C)cc1CN[C@H]1[C@H](C(C)(C)OC)[C@@H](C(=O)O)N(C(=O)C2CCCCC2)[C@H]1c1ccccc1 [II-254]			1000 to 10000	1000 to 10000	+++ (≥350)	> 200			
COc1ccc(-c2ccoc2)cc1CN[C@H]1[C@H](C(C)(C)C)[C@@H](C(=O)O)N(C(=O)C2CCCCC2)[C@H]1c1ccccc1 [II-276]			1000 to 10000	< 1000	+++ (≥350)	> 200			
COc1cc(Cl)ccc1CN[C@H]1[C@H](C(C)(C)C)[C@@H](C(=O)O)N(C(=O)C2CCCCC2)[C@H]1c1cccnc1OC [II-91]			1000 to 10000	1000 to 10000	+++ (≥350)	100 to 200			
CC(C)(C)[C@@H]1[C@@H](NCc2ccccc2OC(F)F)[C@@H](c2ccccc2)N(C(=O)C2CCCCC2)[C@H]1C(=O)O (racemic) [III-7]	1000 to 10000	1000 to 10000					< 100	+++ (≥350)	
COc1ncc(C2CCC2)cc1CN[C@H]1[C@H](C(C)(C)C)[C@@H](C(=O)O)N(C(=O)OC(C)C)[C@H]1c1cccnc1OC(C)C [Example 87, (2S,3S,4S,5S)-3-tert-butyl-4-{[(5-cyclobutyl-2-methoxypyridin-3-yl)methyl]amino}-1-{[(propan-2-yl)oxy]carbonyl}-5-{2-[(propan-2-yl)oxy]pyridin-3-yl}pyrrolidine-2-carboxylic acid]	1000 to 10000	1000 to 10000							Maximum % activity (with co-corrector) [3]: +++ (≥350); Emax [4]: > 200%
COc1ccc(-c2c(C)noc2C)cc1CN[C@H]1[C@H](C(C)(C)C)[C@@H](C(=O)O)N(C(=O)C2CCCCC2)[C@H]1c1ccccc1 [II-285]			1000 to 10000	1000 to 10000	+++ (≥350)	100 to 200			
COc1cccc([C@@H]2[C@H](NCc3ccccc3OC(F)F)[C@@H](C(C)(C)C)[C@H](C(=O)O)N2C(=O)N(C(C)C)C(C)C)n1 (racemic) [III-59]	> 10000	1000 to 10000					< 100	+ (<150)	
COc1ncc(C(F)(F)F)cc1CN[C@H]1[C@H](C23CC(C2)C3)[C@@H](C(=O)O)N(C(=O)OC(C)C)[C@H]1c1ccccc1 [III-221]	1000 to 10000	1000 to 10000					100 to 200		Maximum % activity (with co-corrector) [3]: +++ (≥350)
COc1cc(C(F)(F)F)ccc1CN[C@@H]1[C@@H](C(C)(C)C)[C@H](C(=O)O)N(C(=O)OC(C)C)[C@@H]1c1cccnc1N(C)C (racemic) [Example I-28]	1000 to 10000	1000 to 10000							Maximum % activity (with co-corrector) [3]: +++ (≥350); Emax [4]: > 200%
COc1ccc(C(C)(C)C)cc1CN[C@H]1[C@H](C(C)(C)C)[C@@H](C(=O)O)N(C(=O)c2ccc(OC3CCOCC3)cc2)[C@H]1c1cccnc1N(C)C [II-465]	1000 to 10000	< 1000					> 200	+++ (≥350)	
COc1cc2c(cc1CN[C@H]1[C@H](C(C)(C)C)[C@@H](C(=O)O)N(C(=O)C3CCCCC3)[C@H]1c1ccccc1)C(C)(C)CCC2(C)C [III-119]	< 1000	< 1000					100 to 200		Maximum % activity (with co-corrector) [3]: +++ (≥350)
COc1ccc(OC)c(CN[C@@H]2[C@@H](C(C)(C)C)[C@H](C(=O)O)N(C(=O)C3CCCCC3)[C@@H]2c2ccccc2)c1 (racemic) [III-11]	1000 to 10000	1000 to 10000					< 100	++ (≥150 and <350)	
COc1ccc(C(C)(C)C)cc1CN[C@H]1[C@H](C(C)(C)C)[C@@H](C(=O)O)N(C(=O)C2CCCCC2)[C@H]1c1ccccc1O [Example I-310]			1000 to 10000	< 1000	+++ (≥350)	> 200			
COc1ccc(C2(C(F)(F)F)CC2)cc1CN[C@H]1[C@H](C(C)(C)C)[C@@H](C(=O)O)N(C(=O)C2Cc3ccccc3O2)[C@H]1c1cccnc1N(C)C (single isomer, unassigned) [Example 37, (2S,3S,4S,5S)-3-tert-butyl-1-[(2R*)-2,3-dihydro-1-benzofuran-2-carbonyl]-5-[2-(dimethylamino)pyridin-3-yl]-4-[({2-methoxy-5-[1-(trifluoromethyl)cyclopropyl]phenyl}methyl)amino]pyrrolidine-2-carboxylic acid]	< 1000	< 1000							Maximum % activity (with co-corrector) (with co-corrector (2 μM), maximum at any tested concentration, normalized to on-plate positive control, 2 µM): ++ (≥150 and <350); Maximum % activity (without co-corrector) [4]: + (<100)
COc1ccc(C(C)(C)C)cc1CN[C@H]1[C@H](C(C)(C)C)[C@@H](C(=O)O)N(C(=O)OCC(C)C)[C@H]1c1ccccc1 [II-264]			1000 to 10000	1000 to 10000	+++ (≥350)	> 200			
CC(C)(C)[C@@H]1[C@@H](NCc2ccccc2C#N)[C@@H](c2ccccc2)N(C(=O)C2CCCCC2)[C@H]1C(=O)O (racemic) [III-83]	> 10000	> 10000					< 100	+ (<150)	
COCc1cc(C)nc(N[C@H]2[C@H](C(C)(C)C)[C@@H](C(=O)O)N(C(=O)C3CCCCC3)[C@H]2c2ccccc2)c1C#N [II-147]			1000 to 10000	1000 to 10000	++ (≥150 and <350)	< 100			
COc1ccc(C(C)(C)C)cc1CN[C@H]1[C@H](C(C)(C)C)[C@@H](C(=O)O)N(C(=O)[C@@H]2CCC[C@](C)(O)C2)[C@H]1c1ccccc1 [II-526]	1000 to 10000	1000 to 10000					100 to 200	+++ (≥350)	
Cc1cc(C(F)(F)F)cc(N[C@@H]2[C@@H](C(C)(C)C)[C@H](C(=O)O)N(C(=O)[C@H]3C[C@H]4CC[C@@H]3C4)[C@@H]2c2ccccc2)n1 (racemic) [III-110]	> 10000	1000 to 10000					< 100		Maximum % activity (with co-corrector) [3]: ++ (≥150 and <350)
COc1cc(Cl)ccc1CN[C@@H]1[C@@H](C(C)(C)C)[C@H](C(=O)O)N(C(=O)[C@@H]2CCC[C@@H](OC)C2)[C@@H]1c1ccccc1 (racemic) [II-38]			1000 to 10000	1000 to 10000	+++ (≥350)	100 to 200			
COc1ccc(C(C)(C)C)cc1CN[C@H]1[C@H](C(C)(C)C)[C@@H](C(=O)O)N(C(=O)CC(C)(O)C(C)C)[C@H]1c1ccccc1 (stereo partly shown) [II-372]	1000 to 10000	1000 to 10000					> 200	+++ (≥350)	
COc1ccc(C(C)(C)C)cc1CN[C@H]1[C@H](C(C)(C)C)[C@@H](C(=O)O)N(C(=O)c2ccc(Oc3ccccn3)cc2)[C@H]1c1ccccc1 [II-224]			1000 to 10000	< 1000	+++ (≥350)	> 200			
COc1ncc(C(F)(F)F)cc1CN[C@H]1[C@H](C(C)(C)C)[C@@H](C(=O)O)N(C(=O)C2CCCC2)[C@H]1c1ccccc1C(C)C [Example 98, (2S,3S,4S,5S)-3-tert-butyl-1-(cyclopentanecarbonyl)-4-({[2-methoxy-5-(trifluoromethyl)pyridin-3-yl]methyl}amino)-5-[2-(propan-2-yl)phenyl]pyrrolidine-2-carboxylic acid]	< 1000	< 1000							Maximum % activity (with co-corrector) [3]: +++ (≥350); Emax [4]: > 200%
COc1ncc(C2CCC2)cc1CN[C@H]1[C@H](C(C)(C)C)[C@@H](C(=O)O)N(C(=O)[C@@H]2CCCO2)[C@H]1c1ccccc1C(F)(F)F [Example I-286]			1000 to 10000	< 1000	+++ (≥350)	100 to 200			
COc1ccc(C(C)(C)C)cc1CN[C@H]1[C@H](C(C)(C)C)[C@@H](C(=O)O)N(C(=O)O[C@H]2C[C@@H](C)CC[C@@H]2C(C)C)[C@H]1c1ccccc1 [II-386]	< 1000	< 1000					> 200	+++ (≥350)	
COc1ccc(C23CC(C2)C3)cc1CN[C@H]1[C@H](C(C)(C)C)[C@@H](C(=O)O)N(C(=O)[C@H]2CCCC(F)(F)C2)[C@H]1c1ccccc1 [II-509]	< 1000	< 1000					> 200	+++ (≥350)	
COc1cc(C(F)(F)F)ccc1CN[C@@H]1[C@@H](C(C)(C)C)[C@H](C(=O)O)N(C(=O)[C@@H](OC)c2ccccc2)[C@@H]1c1ccccc1 [III-101]	> 10000	1000 to 10000					< 100		Maximum % activity (with co-corrector) [3]: ++ (≥150 and <350)
